Laboratory results: patent US20250129430A1, “HIGH ATP-AFFINITY PROTEIN AS THERAPEUTIC TARGET FOR INTRACTABLE CANCER MOLECULAR SUBTYPES AND INHIBITOR THEREOF” (VeraVerse Co., Ltd., priority 2021, published 2025)

Key:
Assay in all cases: Cell viability drug screen, 12-point dose-response AUC
Type in all cases: cell-based, human
SK4 = SK4 cells (SEM subtype); 72 hours
Experimental: (§1) An FDA-approved small-molecule pharmacological compound (#L1300) and an anticancer compound for research (#L2000) were purchased from Selecckchem and a 10 mM solution was prepared in DMSO. A total of 1,345 compounds were tested the cell viability of the seven EMT gastric cancer cell lines.
(§2) Cells cultured for cell-based drug assay were inoculated into a 96-well white optical plate (Corning) at 5×10^3 cells per well. After 24 hours after inoculation, a 2.5 MJT (primary screen) or a half-log 12-serial diluent (secondary screen) of the pharmacological compound contained in DMSO is added to the cells with a robot using a BioMek FXp liquid processor (Beckman) to add to the cells at 50 mM. The final drug concentration in the 5 ns range and the DMSO specification control (0.5%) were calculated. The cells were then further incubated at 37° C. in a 5% CO2 incubator for 72 hours prior to measuring cell viability using the extra-GLO assay kit (Promega). The luminescent properties were measured after 15 min incubation at room temperature using a plate stacker equipped with a plate stacker. The normalized viability for the DMSO-based control was measured to generate a cell line-specific 12-point dose-response curve for each pharmacological compound, and then the area under the curve (AUC) was calculated using a trapezoidal method. […] The results of the repeated experiments were averaged to generate AUC values for each cell line for each compound.

NCC20 = NCC20 cells; 72 hours
Experimental: as §1, §2

SNU1750 = SNU1750 cells (SEM subtype); 72 hours
Experimental: as §1, §2

KATO3 = KATO3 cells; 72 hours
Experimental: as §1, §2

SNU638 = SNU638 cells; 72 hours
Experimental: as §1, §2

OCUM1 = OCUM1 cells; 72 hours
Experimental: as §1, §2

NCC19 = NCC19 cells; 72 hours
Experimental: as §1, §2

MKN28 = MKN28 cells; 72 hours
Experimental: as §1, §2

YCC2 = YCC2 cells; 72 hours
Experimental: as §1, §2

MKN45 = MKN45 cells (non-SEM subtype); 72 hours
Experimental: as §1, §2

SNU1967 = SNU1967 cells; 72 hours
Experimental: as §1, §2

YCC3 = YCC3 cells; 72 hours
Experimental: as §1, §2

NCI_N87 = NCI_N87 cells; 72 hours
Experimental: as §1, §2

YCC11 = YCC11 cells (SEM subtype); 72 hours
Experimental: as §1, §2

SNU484 = SNU484 cells (SEM subtype); 72 hours
Experimental: as §1, §2

AGS = AGS cells (non-SEM subtype); 72 hours
Experimental: as §1, §2

MKN74 = MKN74 cells; 72 hours
Experimental: as §1, §2

SNU620 = SNU620 cells; 72 hours
Experimental: as §1, §2

Hs746T = Hs746T cells (SEM subtype); 72 hours
Experimental: as §1, §2

SNU601 = SNU601 cells; 72 hours
Experimental: as §1, §2

SNU668 = SNU668 cells (SEM subtype); 72 hours
Experimental: as §1, §2

SNU16 = SNU16 cells; 72 hours
Experimental: as §1, §2

SNU216 = SNU216 cells (non-SEM subtype); 72 hours
Experimental: as §1, §2

SNU719 = SNU719 cells; 72 hours
Experimental: as §1, §2

MKN1 = MKN1 cells; 72 hours
Experimental: as §1, §2

SNU1 = SNU1 cells; 72 hours
Experimental: as §1, §2

NCC59 = NCC59 cells; 72 hours
Experimental: as §1, §2

NCC24 = NCC24 cells; 72 hours
Experimental: as §1, §2

FU97 = system: FU97; design: Average Area Under the Viability Curve (AUC), AUC norm value: scale not given here; settings: FU97 cells; 72 hours
Experimental: Cells cultured for cell-based drug assay were inoculated into a 96-well white optical plate (Corning) at 5×10^3 cells per well. After 24 hours after inoculation, a 2.5 MJT (primary screen) or a half-log 12-serial diluent (secondary screen) of the pharmacological compound contained in DMSO is added to the cells with a robot using a BioMek FXp liquid processor (Beckman) to add to the cells at 50 mM. The final drug concentration in the 5 ns range and the DMSO specification control (0.5%) were calculated. The cells were then further incubated at 37° C. in a 5% CO2 incubator for 72 hours prior to measuring cell viability using the extra-GLO assay kit (Promega). The luminescent properties were measured after 15 min incubation at room temperature using a plate stacker equipped with a plate stacker. The normalized viability for the DMSO-based control was measured to generate a cell line-specific 12-point dose-response curve for each pharmacological compound, and then the area under the curve (AUC) was calculated using a trapezoidal method.

| SMILES | Average Area Under the Viability Curve (AUC), AUC norm value (SK4) | Average Area Under the Viability Curve (AUC), AUC norm value (NCC20) | Average Area Under the Viability Curve (AUC), AUC norm value (SNU1750) | Average Area Under the Viability Curve (AUC), AUC norm value (KATO3) | Average Area Under the Viability Curve (AUC), AUC norm value (SNU638) | Average Area Under the Viability Curve (AUC), AUC norm value (OCUM1) | Average Area Under the Viability Curve (AUC), AUC norm value (NCC19) | Average Area Under the Viability Curve (AUC), AUC norm value (MKN28) | Average Area Under the Viability Curve (AUC), AUC norm value (YCC2) | Average Area Under the Viability Curve (AUC), AUC norm value (MKN45) | Average Area Under the Viability Curve (AUC), AUC norm value (SNU1967) | Average Area Under the Viability Curve (AUC), AUC norm value (YCC3) | Average Area Under the Viability Curve (AUC), AUC norm value (NCI_N87) | Average Area Under the Viability Curve (AUC), AUC norm value (YCC11) | Average Area Under the Viability Curve (AUC), AUC norm value (SNU484) | Average Area Under the Viability Curve (AUC), AUC norm value (AGS) | Average Area Under the Viability Curve (AUC), AUC norm value (MKN74) | Average Area Under the Viability Curve (AUC), AUC norm value (SNU620) | Average Area Under the Viability Curve (AUC), AUC norm value (Hs746T) | Average Area Under the Viability Curve (AUC), AUC norm value (SNU601) | other results |
| --- | --- | --- | --- | --- | --- | --- | --- | --- | --- | --- | --- | --- | --- | --- | --- | --- | --- | --- | --- | --- | --- |
| O=C(/C=C/c1cccnc1)NCCCCC1CCN(C(=O)c2ccccc2)CC1 [APO866 (FK866), APO866] | 0.7403 | 2.35 | −3.767 | 1.553 | 0.6032 | 0.949 | −4.01 | −6.855 | 1.331 | 0.6191 | −3.653 | 1.423 | 0.8343 | −2.215 | −6.823 | 0 | −6.53 | 0.3488 | −4.382 | 4.976 | Average Area Under the Viability Curve (AUC), AUC norm value (SNU668): −3.304; Average Area Under the Viability Curve (AUC), AUC norm value (SNU16): −4.562; Average Area Under the Viability Curve (AUC), AUC norm value (SNU216): −5.897; Average Area Under the Viability Curve (AUC), AUC norm value (SNU719): 1.275; Average Area Under the Viability Curve (AUC), AUC norm value (MKN1): −5.502; Average Area Under the Viability Curve (AUC), AUC norm value (SNU1): 0.9726; Average Area Under the Viability Curve (AUC), AUC norm value (NCC59): 0.7919; Average Area Under the Viability Curve (AUC), AUC norm value (NCC24): −0.07585; Average Area Under the Viability Curve (AUC), AUC norm value (FU97): −3.149 |
| O=C(Nc1c[nH]nc1-c1nc2ccc(CN3CCOCC3)cc2[nH]1)NC1CC1 [AT9283] | −0.4441 | −2.941 | −1.7502 | 0.5115 | −0.01142 | 0 | 2.247 | −1.903 | 0.07527 | −0.1996 | −0.1244 | 0.6619 | 0.1418 | −1.467 | −1.872 | −0.9303 | 0.4728 | −4.059 | 0.9084 | 1.648 | Average Area Under the Viability Curve (AUC), AUC norm value (SNU668): 0.6968; Average Area Under the Viability Curve (AUC), AUC norm value (SNU16): −3.809; Average Area Under the Viability Curve (AUC), AUC norm value (SNU216): 0.5323; Average Area Under the Viability Curve (AUC), AUC norm value (SNU719): 3.019; Average Area Under the Viability Curve (AUC), AUC norm value (MKN1): −2.315; Average Area Under the Viability Curve (AUC), AUC norm value (SNU1): −3.743; Average Area Under the Viability Curve (AUC), AUC norm value (NCC59): 0.5882; Average Area Under the Viability Curve (AUC), AUC norm value (NCC24): −0.6909 |
| Cc1ccc(C(=O)N(CCCN)[C@@H](c2nc3cc(Cl)ccc3c(=O)n2Cc2ccccc2)C(C)C)cc1 [Ispinesib (SB-715992), Ispinesib] | −0.8267 | −0.9939 | 0.2265 | 2.999 | −0.203 | 1.297 | 1.111 | −1.956 | 0.7987 | 1.833 | 1.562 | 2.007 | −0.0052 | −1.381 | −0.9509 | −2.131 | 0 | −1.255 | 1.046 | −1.371 | Average Area Under the Viability Curve (AUC), AUC norm value (SNU668): 0.1001; Average Area Under the Viability Curve (AUC), AUC norm value (SNU16): −1.935; Average Area Under the Viability Curve (AUC), AUC norm value (SNU216): 1.801; Average Area Under the Viability Curve (AUC), AUC norm value (SNU719): 2.542; Average Area Under the Viability Curve (AUC), AUC norm value (MKN1): −1.178; Average Area Under the Viability Curve (AUC), AUC norm value (SNU1): −1.68; Average Area Under the Viability Curve (AUC), AUC norm value (NCC59): 2.6543; Average Area Under the Viability Curve (AUC), AUC norm value (NCC24): −0.8348 |
